{"source": "patent US20180085359A1", "about": "“USE OF CHELATORS OF DIVALENT CATIONS TO PROMOTE NERVE REGENERATION” (CHILDREN'S MEDICAL CENTER CORPORATION, priority 2012, published 2018)", "key": {"[1]": {"test_system": "RGC axons in the optic nerve", "test": "Optic nerve axon regeneration after optic nerve crush, GAP-43-positive axons distal to the crush site", "type": "in vivo, mouse", "conditions": "for effect on axon regeneration: intraocular injection, days 0 and 4 after ONC; for effect on axon regeneration / most effective concentration for axon regeneration: evaluated at 2 weeks; for maximally effective concentration for axon regeneration (unit not given): FIG. 4 / FIG. 7, 2 weeks after optic nerve injury, multiple injections; for added effect of pre-treatment (additional injection one day before ONC) on axon regeneration: compared with 2 post-injury injections; for most effective concentration for axon regeneration: intraocular injection immediately after optic nerve crush and 4 days later; for axon regeneration in combination with pten gene deletion: pten deleted in RGCs by AAV2-Cre, 2 weeks", "method": "(§1) Studies were performed at Children's Hospital Boston with the approval of the Institutional Animal Care and Use Committee. Experiments used male mice of the strain C57BL/6J (Jackson lab, Bar Harbor, Me.), at 8- to 10-week-old age.\n(§2) Adult mice were anesthetized with a combination of ketamine and xylazine given intraperitoneally. A conjunctival incision was made over the dorsal aspect of one eye, which is then gently rotated downward in the orbit. The orbital muscles were slightly separated to expose the optic nerve at its exit from the globe, which were then crushed for 5 seconds with jewelers' forceps (Dumont number 5) near the back of the eye (within 0.5 mm). […] Same volume PBS was injected intravitreally in control group.\n(§3) Mice were sacrificed with an overdose of anesthesia 14 d after optic nerve injury and were perfused with saline and 4% paraformaldehyde (PFA). […]. Optic nerves and eyes were dissected and postfixed in PFA. Nerves were impregnated with 30% sucrose, embedded in OCT Tissue Tek Medium (Sakura Finetek), frozen, cut in the longitudinal plane at 14 μm, and mounted on coated slides. Regenerating axons were visualized by staining with a sheep antibody to GAP-43 followed by a fluorescently labeled secondary antibody.\nAxon growth was quantified by counting the number of GAP-43-positive axons extending 0.5, 1, 1.5 and 2 mm from the end of the crush site in at least eight sections per case. The cross-sectional width of the nerve was measured at the point at which the counts were taken and was used to calculate the number of axons per millimeter of nerve width. The number of axons per millimeter was then averaged over the number of sections. Σad, the total number of axons extending distance din a nerve having a radius of r, was estimated by summing over all sections having a thickness t (14 μm):\nΣad=πr^2×[average axons/mm]/t"}, "[2]": {"test_system": "retinal ganglion cells (RGC)", "test": "RGC survival after optic nerve crush, βIII-tubulin-stained retinal whole mounts", "type": "in vivo, mouse", "conditions": "for RGC survival when chelator given only on Day 3: single administration 3 d after ONC", "method": "as §1, §2, §3\nImages of eight preselected areas, 2 mm from the optic disc were captured under fluorescent illumination (400×; E800; Nikon). βIII-Tubulin-positive cells were counted using NIH ImageJ software (Wayne Rasband, National Institutes of Health, Bethesda, Md.). Cell densities were averaged across all eight areas."}, "Caspase-3": {"test_system": "Caspase-3", "test": "Caspase-3 immunostaining of retinal cross-sections 5 days after optic nerve crush", "type": "in vivo, mouse", "source_text": "(§4) FIG. 6A-FIG. 6C show results from experiments that indicate Chelation of free Zn^2+ suppresses molecular changes that lead to RGC apoptosis. A) Cross-sections through the normal retina or 5 days after optic nerve crush, with or without treatment with the Zn^2+ chelator TPEN. Sections were immunostained to detect the anti-apoptotic protein Bcl-xL or the pro-apoptotic enzymes Caspase-3 or -8. B) C) Quantitation of cellular changes (avg. number of stained cells per section). Optic nerve injury causes a marked elevation of Caspases-3 and -8. […] BclxL levels have not been quantified yet, but appear to decrease with optic nerve injury and to be partially preserved by TPEN treatment. gcl: ganglion cell layer; ipl, inner plexiform layer; ink inner nuclear layer.\n(§5) Retinal cross-sections from normal mice or 5 days after optic nerve crush, with or without TPEN treatment. Sections were immunostained for the anti-apoptotic protein Bcl-xL or the pro-apoptotic enzymes Caspase-3 or -8. Optic nerve injury causes a marked elevation of Caspases-3 and -8 and a decline in Bcl-xL. TPEN diminishes the expression of Caspases-3 and -8 and attenuates the decline in Bcl-xL gcl: ganglion cell layer; ipl, inner plexiform layer; inl, inner nuclear layer."}, "Bcl-xL": {"test_system": "Bcl-xL", "test": "Bcl-xL immunostaining of retinal cross-sections 5 days after optic nerve crush", "type": "in vivo, mouse", "source_text": "as §4, §5"}, "[3]": {"test_system": "free Zn^2+ in the inner plexiform layer of the retina", "test": "Free Zn2+ in the retina after optic nerve injury by autometallography (AMG)", "type": "in vivo, mouse", "conditions": "chelator injected intraocularly", "method": "A) and B) Mice underwent unilateral optic nerve injury and received i.p. injections of sodium selenite immediately afterwards. Levels of free Zn^2+ increase within 6 hours. C) and D) TPEN (100 μM injections starting 1 day before nerve injury) suppresses the increase in free Zn^2+. The temporal resolution of this method is limited by the time delay for TPEN to reach the retina.\nWe investigated the hypothesis that the liberation of free Zn2+ plays a role in RGC death after axonal injury.\nTo investigate the possible relationship between ionic Zn^2+ and nerve regeneration, we used autometallography (AMG) to examine changes in the retina, injecting Na2SeO3 i.p. at various times after ONC and euthanizing mice 6 hr later. We detected a dramatic increase in labeling in the IPL, the layer of the retina that contains synaptic inputs from retinal interneurons onto RGC dendrites, especially in 2 sublayers (FIG. 11B). IPL labeling in-creased up to 24 hr but declined by 3 days, at which time labeling appeared in RGCs themselves. […] This interpretation is supported by studies using a membrane-permeable fluorescent Zn^2+ sensor, Zinpyr1, which has a strong preference for Zn^2+ over Ca^2+ (41). […] As with AMG, Zinpyr1 labeling was elevated in RGCs but not IPL at 3 days (FIG. 11K). The Zn^2+ transporter ZnT3 is also localized in the IPL (FIG. 11L)."}, "Adult rat RGCs": {"test_system": "Adult rat RGCs", "test": "Axon outgrowth in cultured adult RGCs in defined media", "type": "cell-based", "conditions": "ZX1 10 μM; with or without forskolin, mannose, oncomodulin"}, "[4]": {"test": "Hydrolytic stability of the sulfonate ester at pH 7", "type": "physicochemical"}, "[5]": {"test_system": "porcine liver esterase (PLE)", "test": "Enzymatic cleavage by esterase followed by UV/vis", "type": "in vitro ADME", "conditions": "25% MeOH/PBS at 37° C., 0.2 unit/ml porcine liver esterase", "method": "A) change of UV/vis spectrum of 3 in 25% MeOH/PBS upon addition of esterase at 37° C. The final spectrum matched the spectrum of ZX1 (B). A) Insert: the decrease of absorbance at 340 nm.\nThe AcOTFMB sulfonate ester, 1, was synthesized with 88% yield by esterifying 2-nitrobenzenesulfonyl chloride with the corresponding alcohol in the presence of DABCO as the base. Reduction of the nitro functionality with hydrogen afforded the aniline, 2, with 99% yield. The dipicolylamine (DPA) zinc-binding unit can be installed to the aniline via reduction amination to afford the target molecule, 3, in 10% yield (Scheme 1). […] In 25% MeOH/PBS at 37° C., upon introduction of 0.2 unit/ml porcine liver esterase (PLE), The UV/vis spectrum gradually changes with an isosbestic point of 317 nm, to produce a peak at 307 nm (FIG. 10)."}, "[6]": {"conditions": "injected into the eye just after ONC and again after 4 days"}}, "note": "Values joined by “and” are separate entries in the source; they are usually repeats but may differ in a detail not shown here. Identical values can stand only once. “Also recorded” adds a separate entry of the source.", "data": [{"compound": "O=C(O)CN(CCN(CC(=O)O)CC(=O)O)CC(=O)O.[Ca]", "note": "[CaEDTA]", "values": [{"measurement": "effect on axon regeneration", "setting": "[1]", "value": "led to axon outgrowth"}, {"measurement": "effect on RGC survival 2 weeks after ONC", "setting": "[2]; [6]", "value": "doubled"}, {"measurement": "effect on RGC survival 2 weeks after ONC", "setting": "[2]; injected into the eye just after ONC and again after 4 days, listed as Ca-EDTA", "value": "promotes cell survival"}]}, {"compound": "CC[N+](CC)(CC)CC", "note": "[TEA, tetraethylammonium]", "values": [{"measurement": "RGC survival after optic nerve injury with K+ channel blockers", "setting": "[2]; FIG. 16", "value": "blocks RGC death after ONC to the same extent as TPEN; also recorded: strong effect"}, {"measurement": "concentration affording strong protection of RGCs", "setting": "[2]; mouse, in vivo", "value": "< 100 µM and 100 µM"}]}, {"compound": "c1ccc(CN(CCN(Cc2ccccn2)Cc2ccccn2)Cc2ccccn2)nc1", "note": "[TPEN, N,N,N′,N′-tetrakis(2-pyridylmethyl)ethylenediamine]", "values": [{"measurement": "injury-induced increase in Caspase-3", "setting": "Caspase-3", "value": "suppressed; also recorded: diminishes the number of Caspase-3 positive cells"}, {"measurement": "maximally effective concentration for axon regeneration (unit not given)", "setting": "[1]; in µM", "value": "100-500"}, {"measurement": "added effect of pre-treatment (additional injection one day before ONC) on axon regeneration", "setting": "[1]", "value": "markedly increased the number of regenerating axons; also recorded: augmented the amount of regeneration"}, {"measurement": "most effective concentration for axon regeneration", "setting": "[1]", "value": 100, "unit": "µM"}, {"measurement": "effect on axon regeneration", "setting": "[1]", "value": "led to axon outgrowth"}, {"measurement": "axon regeneration in combination with pten gene deletion", "setting": "[1]", "value": "much greater effects on regeneration than either one alone; also recorded: double"}, {"measurement": "axon regeneration when injected on D3", "setting": "[1]; single administration 3 d after ONC", "value": "did not promote regeneration"}, {"measurement": "injury-induced decrease in Bcl-xL", "setting": "Bcl-xL", "value": "suppressed; also recorded: partially blocks Bcl-xL loss after ONC"}, {"measurement": "added effect of pre-treatment (additional injection one day before ONC) on RGC survival", "setting": "[2]; compared with injections on day 0 and day 4 only", "value": "not augmented; also recorded: did not enhance RGC survival"}, {"measurement": "effect on RGC survival 2 weeks after ONC", "setting": "[2]; [6]", "value": "protected RGCs"}, {"measurement": "most effective concentration for RGC survival", "setting": "[2]; intraocular, day 0 and day 4 after optic nerve crush, survival at 2 weeks", "value": 100, "unit": "µM"}, {"measurement": "RGC survival in combination with pten gene deletion", "setting": "[2]; pten deleted in RGCs by AAV2-Cre, 2 weeks", "value": "no additional effect"}, {"measurement": "RGC survival when chelator given only on Day 3", "setting": "[2]", "value": "fully protective"}, {"measurement": "long-lasting RGC survival", "setting": "[2]; up to 12 wk after ONC", "value": "enduring protection"}, {"measurement": "free Zn2+ level / AMG labeling in the retina after optic nerve injury", "setting": "[3]", "value": "diminishes Zn2+ levels; also recorded: blocked injury-induced labeling in the IPL"}]}, {"compound": "O=S(=O)(O)c1ccccc1NCCN(Cc1ccccn1)Cc1ccccn1", "note": "[ZX1]", "values": [{"measurement": "GAP-43-positive axons at 0.5 mm from crush site", "setting": "[1]; 2 weeks after crush, ZX1 10 μM˜10 mM injection, crush alone 7.05±2.49 axons", "value": "up to 164 axons"}, {"measurement": "maximally effective concentration for axon regeneration (unit not given)", "setting": "[1]", "value": 30, "unit": "µM"}, {"measurement": "added effect of pre-treatment (additional injection one day before ONC) on axon regeneration", "setting": "[1]", "value": "augmented the amount of regeneration"}, {"measurement": "most effective concentration for axon regeneration", "setting": "[1]", "value": 100, "unit": "µM"}, {"measurement": "effect on axon regeneration", "setting": "[1]", "value": "induces extensive regeneration; also recorded: similarly effective in inducing regeneration"}, {"measurement": "axon regeneration when added to Zymosan + cAMP alone", "setting": "[1]; long-term, FIG. 18", "value": "increases the effect of Zymosan+ cAMP alone"}, {"measurement": "axon regeneration when added to Zymosan, elevation of cAMP and pten gene deletion", "setting": "[1]; long-term, examined 12 weeks after chelator", "value": "nearly doubles the amount of regeneration seen at short distances from the injury site"}, {"measurement": "axon regeneration in combination with pten gene deletion", "setting": "[1]", "value": "double"}, {"measurement": "dose dependence of RGC survival", "setting": "[2]; ZX1 between 10 μM and 10 mM", "value": "roughly equally effective in promoting cell survival; also recorded: equally protective against RGC death at all concentrations from 10 μM up"}, {"measurement": "effect on RGC survival 2 weeks after ONC", "setting": "[2]; [6]", "value": "just as effective as TPEN; also recorded: doubled"}, {"measurement": "RGC survival when chelator given only on Day 3", "setting": "[2]", "value": "less effective"}, {"measurement": "axon outgrowth of cultured RGCs", "setting": "Adult rat RGCs", "value": "no effect"}, {"measurement": "free Zn2+ level / AMG labeling in the retina after optic nerve injury", "setting": "[3]", "value": "blocked injury-induced labeling in the IPL"}]}, {"compound": "O=C(O)CN(CCN(CC(=O)O)CC(=O)O)CC(=O)O.[Zn]", "note": "[ZnEDTA]", "values": [{"measurement": "effect on axon regeneration", "setting": "[1]", "value": "not"}, {"measurement": "effect on RGC survival 2 weeks after ONC", "setting": "[2]; mouse, in vivo", "value": "not"}]}, {"compound": "CC(=O)Oc1ccc(C(OS(=O)(=O)c2ccccc2NCCN(Cc2ccccn2)Cc2ccccn2)C(F)(F)F)cc1", "note": "(stereo not shown) [compound 3, 4-(1-(((2-((2-(bis(pyridin-2-ylmethyl)amino)ethyl)amino)phenyl)sulfonyl)oxy)-2,2,2-trifluoroethyl)phenyl acetate]", "values": [{"measurement": "stability toward hydrolysis", "setting": "[4]", "value": "stable at pH 7 for several days without being hydrolyzed"}, {"measurement": "susceptibility to esterase cleavage", "setting": "[5]", "value": "susceptible to enzymatic cleavage to afford ZX1"}]}, {"compound": "Agitoxin-2: blocker of Shaker family K+ channels Kv1.1 and 1.3", "values": [{"measurement": "RGC survival after optic nerve injury with K+ channel blockers", "setting": "[2]; FIG. 16", "value": "only a small effect on RGC survival"}, {"measurement": "RGC survival in combination with TPEN", "setting": "[2]; FIG. 16", "value": "does not augment the effect of TPEN"}, {"measurement": "RGC survival after optic nerve injury with K+ channel blockers", "setting": "[2]; FIG. 16, listed as AgTx2", "value": "slightly improves RGC survival"}]}]}
